Data from US20260200926A1, “TREM2 MODULATORS” (Muna Therapeutics ApS, priority 2022, published 2026).
Read-outs that look alike come from different tables or passages of the source.

Molecular target: T1, Human TREM2 (Homo sapiens, UniProt Q9NZC2)
T1 construct: expressed in transfected cells
Assay: Human TREM2 activity: cellular phosphorylation of Syk (AlphaLISA SureFire Ultra p-SYK) in HEK293/DAP12+TREM2 stable cell line
Assay type: cell-based
Conditions: for Emax: HEK293; for EC50: phospho-Syk AlphaLISA signal, HEK293/DAP12+TREM2 cells, concentration giving 50% of maximal response, read-out: EC50
How it was run: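 HEK293 cells stably co-expressing human TREM2 and DAP12 were seeded at 10,000 cells/well and used 20–24 h later. Compounds were tested at 8 concentrations (top 100 μM, 1:6 steps, 0.5% DMSO) for 30 min at 37 °C. Syk phosphorylation at Tyr525/526 was read in lysates by AlphaLISA SureFire Ultra.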

[1] = maximal response relative to reference agonist human TREM2 MAB1828 (examples 1, 1A and 1B), read-out: Emax
[2] = maximal response relative to reference agonist example 1B (remaining examples), read-out: Emax

T1 sequence (Q9NZC2 19-230): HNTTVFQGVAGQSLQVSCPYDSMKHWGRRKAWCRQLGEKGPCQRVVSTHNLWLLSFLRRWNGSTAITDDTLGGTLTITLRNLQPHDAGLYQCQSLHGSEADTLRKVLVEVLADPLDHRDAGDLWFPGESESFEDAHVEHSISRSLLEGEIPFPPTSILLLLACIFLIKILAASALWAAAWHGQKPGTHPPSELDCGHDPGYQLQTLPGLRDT
T1 sequence (O43914 22-113 partner): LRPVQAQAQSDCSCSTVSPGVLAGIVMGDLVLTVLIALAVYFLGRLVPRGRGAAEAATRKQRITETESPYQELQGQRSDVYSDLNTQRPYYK

| SMILES | Emax [1] [%] | EC50 [nM] | Emax [2] [%] | Emax [%] |
| --- | --- | --- | --- | --- |
| Cc1nc2c(-c3ccc(Cl)cc3F)nc(N3CCO[C@@H](c4cnn(C)c4)C3)nc2c(=O)n1C (single isomer, unassigned) [Example 1B] | > 110 | 10 to 100 |  |  |
| Cc1nc2c(-c3ccc(C#N)cc3F)nc(N3C[C@@H](c4cnn(C5CC5)c4)O[C@@H](C)C3)cc2c(=O)n1C (single isomer, unassigned) [Example 200A] |  | < 1 | 75 to 110 |  |
| Cc1nc2c(-c3ccc(Cl)cc3F)nc(N3CC(OCc4cnn(C)c4)C3)nc2c(=O)n1C [Example 18, 8-(4-chloro-2-fluorophenyl)-2,3-dimethyl-6-(3-((1-methyl-1H-pyrazol-4-yl)methoxy)azetidin-1-yl)pyrimido[5,4-d]pyrimidin-4 (3H)-one] |  | > 1000 | < 75 |  |
| Cc1nc2c(-c3ccc(Cl)cc3F)nc(N3CC[C@@H](Oc4cnn(C)c4)C3)nc2c(=O)n1C [Example 64, (R)-8-(4-chloro-2-fluorophenyl)-2,3-dimethyl-6-(3-((1-methyl-1H-pyrazol-4-yl)oxy)pyrrolidin-1-yl)pyrimido[5,4-d]pyrimidin-4 (3H)-one] |  | 10 to 100 | < 75 |  |
| Cc1nc2c(-c3ccc(C(F)(F)F)nc3)nc([C@H]3CCO[C@@H](c4cnn(C)c4)C3)nc2c(=O)n1C (single isomer, unassigned) [Example 88B] |  | > 1000 | < 75 |  |
| CNC(=O)C1CN(c2nc(-c3ccc(Cl)cc3F)c3nc(C)n(C)c(=O)c3n2)CCO1 (stereo not shown) [Example 49, 4-(4-(4-chloro-2-fluorophenyl)-6,7-dimethyl-8-oxo-7,8-dihydropyrimido[5,4-d]pyrimidin-2-yl)-N-methylmorpholine-2-carboxamide] |  | > 1000 | < 75 |  |
| Cc1nc2c(-c3ccc(Cl)cc3F)nc([C@@H]3CCO[C@H](c4cnn(C5CC5)c4)C3)cc2c(=O)n1C (single isomer, unassigned) [Example 140A] |  | 100 to 1000 |  | < 75 |
| Cc1nc2c(-c3ccc(Cl)cc3F)cc(N3CCOC(c4cnn(C)c4)C3)nc2c(=O)n1C (stereo not shown) [Example 104, 8-(4-chloro-2-fluorophenyl)-2,3-dimethyl-6-(2-(1-methyl-1H-pyrazol-4-yl)morpholino)pyrido[3,2-d]pyrimidin-4 (3H)-one] |  | 100 to 1000 | 75 to 110 |  |
| Cc1cc([C@H]2CN(c3cc4c(=O)n(C)c(C)nc4c(-c4ccc(F)cc4F)n3)C[C@@H](C)O2)ccn1 (single isomer, unassigned) [Example 182B] |  | 100 to 1000 | < 75 |  |
| Cc1cnccc1OC1CCN(c2nc(-c3ccc(Cl)cc3F)c3nc(C)n(C)c(=O)c3n2)CC1 [Example 84, 8-(4-chloro-2-fluorophenyl)-2,3-dimethyl-6-(4-((3-methylpyridin-4-yl)oxy)piperidin-1-yl)pyrimido[5,4-d]pyrimidin-4(3H)-one] |  | 100 to 1000 | < 75 |  |
| Cc1cc([C@H]2CN(c3nc(-c4ccc(F)cc4F)c4nc(C(F)(F)F)n(C)c(=O)c4c3F)CCO2)ccn1 (single isomer, unassigned) [Example 174B] |  | 100 to 1000 | < 75 |  |
| Cc1nc(C2CN(c3nc(-c4ccc(Cl)cc4F)c4nc(C)n(C)c(=O)c4n3)CCO2)no1 (stereo not shown) [Example 50, 8-(4-chloro-2-fluorophenyl)-2,3-dimethyl-6-(2-(5-methyl-1,2,4-oxadiazol-3-yl)morpholino)pyrimido[5,4-d]pyrimidin-4(3H)-one] |  | 10 to 100 | < 75 |  |
| Cc1nc2c(-c3ccc(F)c(F)c3)nc(N3CCOC(c4cnn(C)c4)C3)nc2c(=O)n1C (stereo not shown) [Example 9, 8-(3,4-difluorophenyl)-2,3-dimethyl-6-(2-(1-methyl-1H-pyrazol-4-yl)morpholino)pyrimido[5,4-d]pyrimidin-4(3H)-one] |  | 100 to 1000 | < 75 |  |
| Cc1cc([C@@H]2CN(c3nc(-c4ccc(C(F)(F)F)nc4)c4nc(C)n(C)c(=O)c4n3)CCO2)ccn1 (single isomer, unassigned) [Example 22A] |  | 100 to 1000 | 75 to 110 |  |
| Cc1nc2c(-c3ccc(Cl)cc3F)nc(N3CCO[C@H](c4cnn(C)c4)C3)nc2c(=O)n1C (single isomer, unassigned) [Example 1A] | 75 to 110 | 100 to 1000 |  |  |
| Cc1nc2c(-c3cc(F)c(F)cc3F)nc(N3CCO[C@@H](c4cnn(C5CC5)c4)C3)cc2c(=O)n1C (single isomer, unassigned) [Example 133B] |  | 100 to 1000 | < 75 |  |
| Cc1nc2c(-c3ccc(C(F)(F)F)nc3)nc([C@H]3CCO[C@@H](c4cnn(C5CC5)c4)C3)nc2c(=O)n1C (single isomer, unassigned) [Example 98B] |  | > 1000 | < 75 |  |
| Cc1nc2c(-c3ccc(F)cc3F)nc(N3C[C@@H](c4cnn(C5CC5)c4)O[C@@H](C)C3)cc2c(=O)n1C (single isomer, unassigned) [Example 190A] |  | 10 to 100 | 75 to 110 |  |
| Cc1nc2c(-c3ccc(C(F)(F)F)cc3F)nc(N3C[C@@H](c4cnn(C)c4)OC4(CCC4)C3)cc2c(=O)n1C (single isomer, unassigned) [Example 143A] |  | 1 to 10 | 75 to 110 |  |

| SMILES | Emax [1] [%] | EC50 [nM] | Emax [2] [%] | Emax [%] |
| --- | --- | --- | --- | --- |
| Cc1cc([C@@H]2CN(c3cc4c(=O)n(C)c(C)nc4c(-c4ccc(Cl)cc4F)n3)CC(C)(C)O2)ccn1 (single isomer, unassigned) [Example 172A] |  | 100 to 1000 | < 75 |  |
| Cc1nc2c(-c3ccc(Cl)cc3F)nc(N3C[C@@H](c4cnn(C)c4)OC(F)(F)C3)nc2c(=O)n1C (single isomer, unassigned) [Example 149A] |  | < 1 | 75 to 110 |  |
| Cc1nc2c(C3CCC(F)(F)CC3)nc(N3CCOC(c4cnn(C)c4)C3)nc2c(=O)n1C (stereo not shown) [Example 11, 8-(4,4-difluorocyclohexyl)-2,3-dimethyl-6-(2-(1-methyl-1H-pyrazol-4-yl)morpholino)pyrimido[5,4-d]pyrimidin-4 (3H)-one] |  | 100 to 1000 | 75 to 110 |  |
| Cc1nc2c(-c3cc(F)c(F)cc3F)nc([C@@H]3CCO[C@H](c4cnn(C5CC5)c4)C3)nc2c(=O)n1C (single isomer, unassigned) [Example 97A] |  | 10 to 100 | 75 to 110 |  |
| Cc1nc2c(-c3cc(F)c(F)cc3F)nc(N3CCO[C@@H](c4cnn(C)c4)C3)cc2c(=O)n1C (single isomer, unassigned) [Example 130A] |  | 10 to 100 | < 75 |  |
| Cc1nc2c(-c3ccc(Cl)cc3F)nc(N3CCO[C@H](c4cnn(C)c4)C3)cc2c(=O)n1C (single isomer, unassigned) [Example 125B] |  | 10 to 100 | < 75 |  |
| Cc1nc2c(-c3ccc(Cl)cc3F)nc(N3C[C@@H](c4cnn(C)c4)OC4(CC4)C3)cc2c(=O)n1C (single isomer, unassigned) [Example 144A] |  | 1 to 10 | 75 to 110 |  |
| Cc1nc2c(-c3ccc(F)cc3F)nc(N3C[C@@H](C)O[C@@H](c4cnn(C5CC5)c4)C3)nc2c(=O)n1C (single isomer, unassigned) [Example 177B] |  | 1 to 10 | 75 to 110 |  |
| Cc1cc([C@H]2CN(c3cc4c(=O)n(C)c(C)nc4c(-c4ccc(F)cc4F)n3)CC(C)(C)O2)ccn1 (single isomer, unassigned) [Example 159B] |  | 100 to 1000 | < 75 |  |
| Cc1nc2c(-c3ccc(F)cc3F)nc(N3C[C@@H](c4cnn(C)c4)OC(C)(C)C3)nc2c(=O)n1C (single isomer, unassigned) [Example 121A] |  | 100 to 1000 | < 75 |  |
| Cc1nc2c(-c3ccc(Cl)cc3C#N)nc(N3CC(C)OC(c4cnn(C5CC5)c4)C3)cc2c(=O)n1C (stereo not shown) [Example 198, 5-chloro-2-(6-(2-(1-cyclopropyl-1H-pyrazol-4-yl)-6-methylmorpholino)-2,3-dimethyl-4-oxo-3,4-dihydropyrido[3,4-d]pyrimidin-8-yl)benzonitrile] |  | > 1000 | < 75 |  |
| Cc1nc2c(-c3ccc(C(F)(F)F)nc3)nc(N3CCO[C@H](c4cnn(C)c4)C3)cc2c(=O)n1C (single isomer, unassigned) [Example 127B] |  | > 1000 | < 75 |  |
| Cc1nc2c(-c3ccc(Cl)cc3F)nc(N3C[C@@H](c4cnn(C5CC5)c4)O[C@@H](C)C3)nc2c(=O)n1C (single isomer, unassigned) [Example 178A] |  | 1 to 10 | 75 to 110 |  |
| Cc1nc2c(-c3ccc(Cl)cc3F)nc(N3CCN(C)C(c4cnn(C)c4)C3)nc2c(=O)n1C (stereo not shown) [Example 29, 8-(4-chloro-2-fluorophenyl)-2,3-dimethyl-6-(4-methyl-3-(1-methyl-1H-pyrazol-4-yl)piperazin-1-yl)pyrimido[5,4-d]pyrimidin-4(3H)-one] |  | 100 to 1000 | < 75 |  |
| Cc1nc2c(-c3ccc(Cl)cc3F)nc(N3CCO[C@H](c4cnn(C)c4)C3)nc2c(=O)[nH]1 (single isomer, unassigned) [Example 203A] |  | 100 to 1000 | < 75 |  |
| Cc1cc([C@@H]2CN(c3cc4c(=O)n(C)c(C)nc4c(-c4ccc(F)cc4F)n3)CCO2)ccn1 (single isomer, unassigned) [Example 136A] |  | 1 to 10 | 75 to 110 |  |
| Cc1nc2c(-c3ccc(F)cc3F)nc(N3CC(C)OC(c4cnn(C5CC5)c4)C3)nc2c(=O)n1C (racemic) [Example 177C, 6-(2-(1-cyclopropyl-1H-pyrazol-4-yl)-6-methylmorpholino)-8-(2,4-difluorophenyl)-2,3-dimethylpyrimido[5,4-d]pyrimidin-4 (3H)-one] |  | 100 to 1000 | < 75 |  |
| Cc1nc2c(-c3ccc(C(F)(F)F)cc3F)nc(N3CCO[C@H](c4cnn(C)c4)C3)nc2c(=O)n1C (single isomer, unassigned) [Example 25A] |  | 10 to 100 | < 75 |  |
| Cc1cc([C@H]2CN(c3cc4c(=O)n(C)c(C)nc4c(-c4ccc(C(F)F)nc4)n3)CC(C)(C)O2)ccn1 (single isomer, unassigned) [Example 180B] |  | 10 to 100 | < 75 |  |
